tested on: 3D multicellular tumor spheroids (4T1 cells and M2 macrophages derived from RAW264.7 cells); experiment: 3D multicellular tumor spheroids (MCTs) growth; type: cell-based; details: single drug 5 μM; combination 2.5 μM plus 2.5 μM; 14 days
Procedure: 3D multicellular tumor spheroids (MICs), 4T1 cells and M2 macrophages derived from RAW264.7 cells were mixed in the ratio of 7:3 and then seeded into an ultralow-attachment 96 well plate (Corning) at a density of 5,000 cells/well and cultured for 30 h to form the tumor spheroids. These tumor spheroids were separately incubated with 300 μL complete medium supplemented with PTX ([…]), gemcitabine (5 μM), doxorubicin (5 μM), and IPI-549 (5 μM) as well as the combination of IPI-549 and PTX (2.5 μM+[…]), IPI-549 and gemcitabine (2.5 μM+2.5 μM), and IPI-549 and doxorubicin (2.5 μM+2.5 μM) for 14 days. The volumes ([major axis]×[minor axis]^2/2) of the MTCs were monitored every other day using an Olympus IX83 motorized inverted microscope with cellSens Dimension software (Olympus), and images were captured using a CellInsight CX5 High-Content Screening (HCS) Platform (Thermo Fisher) at 4× magnification.

| Structure (SMILES) | inhibition of 3D MCTs growth |
| --- | --- |
| C[C@H](NC(=O)c1c(N)nn2cccnc12)c1cc2cccc(C#Cc3cnn(C)c3)c2c(=O)n1-c1ccccc1 [IPI-549] | limited inhibition of 3D MCTs growth |
| CC(=O)O[C@H]1C(=O)[C@@]2(C)[C@H]([C@H](OC(=O)c3ccccc3)[C@]3(O)C[C@H](OC(=O)[C@H](O)[C@@H](NC(=O)c4ccccc4)c4ccccc4)C(C)=C1C3(C)C)[C@]1(OC(C)=O)CO[C@@H]1C[C@@H]2O [PTX, paclitaxel] | limited inhibition of 3D MCTs growth |
| COc1cccc2c1C(=O)c1c(O)c3c(c(O)c1C2=O)C[C@@](O)(C(=O)CO)C[C@@H]3O[C@H]1C[C@H](N)[C@H](O)[C@H](C)O1 [doxorubicin] | limited inhibition of 3D MCTs growth |
| Nc1ccn([C@@H]2O[C@H](CO)[C@@H](O)C2(F)F)c(=O)n1 [gemcitabine] | limited inhibition of 3D MCTs growth |
